Here are results for eleven compounds from paper PMC6151700, “Novel FXa Inhibitor Identification through Integration of Ligand- and Structure-Based Approaches” (Molecules : A Journal of Synthetic Chemistry and Natural …, 2017).

Molecules are shown by their SMILES. Where two headings read alike, the source gives them in different places.

By inhibition is commonly meant the change of the read-out against control, counted positive when it falls. Usually IC50 stands for the midpoint of a concentration-inhibition curve. Low readings indicate higher potency, high ones lower potency.

Experiment [1] concerns the target T1, human FXa (Homo sapiens, UniProt P00742).
T1 construct: purchased Anaspec, Fremont, CA, USA
The experiment in a line: Inhibition of FXa in vitro (SensoLyte Rh110 Factor Xa Assay Kit, fluorometric). The format is biochemical. To be noted: for Emax at 0.01 µM: at 10 nM, read-out: maximal effect of FXa inhibition. The method, then: The selected compounds were measured in vitro for their factor Xa inhibition using chromogenic substrates. In a first trial the 30 compounds obtained from the developmental therapeutic program at NCI were dissolved in dimethyl sulfoxide (DMSO) at a concentration of 100 mM and then diluted in DMSO to 100 μM. The enzymatic assay was prepared according to manufacturer’s instructions (SensoLyte® Rh110 Factor Xa Assay Kit *Fluorometric*, Anaspec, Fremont, CA, USA). Inhibition control 1 mM was diluted 1:10 with the prepared buffer 1X obtaining the 0.1 mM inhibition control. The reagents containing compound dilutions, buffer and enzyme were mixed, centrifuged, and incubated for 30 min at 37 °C in 96-well microtiter plates. The enzyme reaction was initiated by adding appropriate substrate (FXa, S-2222). The 96-well plate for fluorescence was prepared with 40 μL of enzyme and 1 μL of each compound. To initiate the enzymatic reaction 50 μL of the factor Xa substrate was added to each well and the plate was read with a fluorescence microplate reader FLx800 (Biotek Inc., Winooski, VT, USA) programmed to read continuously for 30 min at 37 °C, at a wavelength of Ex/Em 490 nm/520 nm. […] The data obtained was analyzed with Prism v.7 (GraphPad Inc., La Jolla, CA, USA). In the second trial, the ten filtered and selected compounds) were prepared to span four different concentrations: 0.1–10 nM. The IC50 was calculated from the mean of triplicates from a dilution series of the compound with Prism v.7 (GraphPad Inc., La Jolla, CA, USA).

In experiment [2] the test system is human plasma. The experiment in a line: In vitro coagulation assay, activated partial thromboplastin time (aPTT). Particulars: 0.1 to 10 nM. The method, then: (§1) PT and aPTT assays were performed on an ACLTop (Instrumentation Laboratory) coagulation instrument. Recombiplastin 2G and aPTT-SP liquid were used according to standard procedures. Increasing concentrations of inhibitor ranging from 0.1 to 10 nM or solvent were added to human plasma and incubated for 10 min at 37 °C. Clotting times were measured and compared with those from the appropriate control plasma.

Experiment [3] has as its system tumor cell line. To be noted: assayed 53 times, ChEMBL database ref 46, 47; cited from earlier work.
Experiment [4] deals with human plasma. The experiment in a line: In vitro coagulation assay, prothrombin time (PT). Particulars: up to 10 nM. The method, then:
as §1

Setting [5] is: read-out: FXa Activity Inhibition >50% at 1 μM.
[6] abbreviates: read-out: FXa Activity Inhibition >50% at 10 μM.

T1 sequence (P00742 235-488 limits assumed): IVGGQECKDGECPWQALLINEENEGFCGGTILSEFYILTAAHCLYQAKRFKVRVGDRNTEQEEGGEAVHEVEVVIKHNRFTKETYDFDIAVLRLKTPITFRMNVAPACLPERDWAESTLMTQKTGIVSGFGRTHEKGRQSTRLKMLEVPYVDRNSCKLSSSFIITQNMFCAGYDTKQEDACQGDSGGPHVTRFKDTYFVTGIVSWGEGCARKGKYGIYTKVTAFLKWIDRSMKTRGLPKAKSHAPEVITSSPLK
T1 sequence (P00742 41-179 partner limits assumed): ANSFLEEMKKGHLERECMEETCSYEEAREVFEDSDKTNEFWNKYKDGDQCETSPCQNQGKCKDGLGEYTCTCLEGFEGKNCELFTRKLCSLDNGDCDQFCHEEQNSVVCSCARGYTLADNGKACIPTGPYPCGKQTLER

For `O=C(NCc1ccc2ccc3cccnc3c2n1)c1ccc[n+](Cc2ccccc2)c1` [Compound 2], in experiment [1], the “FXa Activity Inhibition >50% at 1 μM” value is listed as “(−) (FXa Activity Inhibition >50% at 1 μM)” and the “FXa Activity Inhibition >50% at 10 μM” value is on record as “(+) (FXa Activity Inhibition >50% at 10 μM)”.
Turning to `Cc1ccc(NC(=O)CCc2nnc3s/c(=C\c4cccc([N+](=O)[O-])c4)c(=O)n23)cc1` [Compound 3], in experiment [1], the “FXa Activity Inhibition >50% at 1 μM” value was “(−) (FXa Activity Inhibition >50% at 1 μM)” and the “FXa Activity Inhibition >50% at 10 μM” value is “(+) (FXa Activity Inhibition >50% at 10 μM)”.
On to `CC1=C(C(=O)CC(=O)C(=O)Nc2ccccc2)Sc2ccccc2N1` [Compound 5, 4-(3-methyl-4H-1,4-benzothiazin-2-yl)-2,4-dioxo-N-phenylbutanamide], for which, in experiment [1], the Emax at 0.01 µM is 58%. Besides, the inhibition at 1 µM in experiment [1] (at 1 μM, read-out: FXa inhibition) is above 50%; in experiment [1] (setting [5]), above 50%. The midpoint of inhibition in experiment [1] (dose response curves, human FXa), the IC50, lay at 2.02 nM. Besides, the inhibition at 10 µM in experiment [1] (setting [6]) was above 50%. Further, the aPTT result in experiment [2] was “prolonged only aPTT”. Further, the “tumor cell line growth inhibition” value in experiment [3] is “inactive in all of them”. In experiment [4], the PT result was “without effect on PT”.
For the compound `CS(=O)(=O)N1C[C@H](C(=O)Nc2ccc(Cl)cc2)[C@@H](C(=O)Nc2ccc(-n3ccccc3=O)cc2F)C1` [Compound 8], the inhibition at 1 µM in experiment [1] (1 µM, Table S1, read-out: FXa Activity Inhibition >50% at 1µM) was below 50%. In experiment [1] (10 µM, Table S1, read-out: FXa Activity Inhibition >50% at 10µM), the inhibition at 10 µM is below 50%.
On to `CCOc1ccc(NC(=O)CC2SC(=Nc3ccc(C)cc3)NC2=O)cc1` (stereo not shown) [Compound 9], for which, in experiment [1], the “FXa Activity Inhibition >50% at 1 μM” value was “(−) (FXa Activity Inhibition >50% at 1 μM)” and the “FXa Activity Inhibition >50% at 10 μM” value was “(+) (FXa Activity Inhibition >50% at 10 μM)”.
On to `O=C(C[n+]1ccn(CC(OCc2ccc(Cl)cc2Cl)c2ccc(Cl)cc2Cl)c1)c1ccc(F)cc1.[Cl-]` (stereo not shown) [Compound 10], for which, in experiment [1], the “FXa Activity Inhibition >50% at 1 μM” value is listed as “(−) (FXa Activity Inhibition >50% at 1 μM)” and the “FXa Activity Inhibition >50% at 10 μM” value is “(+) (FXa Activity Inhibition >50% at 10 μM)”.
As for `c1ccc(Cc2[nH]nc(-c3n[nH]c(Cc4ccccc4)c3-c3ccccc3)c2-c2ccccc2)cc1` [Compound 12], in experiment [1], the “FXa Activity Inhibition >50% at 1 μM” value is on record as “(−) (FXa Activity Inhibition >50% at 1 μM)” and the “FXa Activity Inhibition >50% at 10 μM” value is reported as “(+) (FXa Activity Inhibition >50% at 10 μM)”.
In the same order, the values of `Cc1cc(Cl)ccc1NC(=O)CC1SC(=NC(=O)c2ccccc2Cl)NC1=O` (stereo not shown) [Compound 22] are “(−) (FXa Activity Inhibition >50% at 1 μM)” and “(+) (FXa Activity Inhibition >50% at 10 μM)”.
On to `O=C(CC(=O)C1=CNc2ccccc2S1)C(=O)Nc1ccc(Cl)cc1` [Compound 23], for which, in experiment [1], the “FXa Activity Inhibition >50% at 1 μM” value is on record as “(−) (FXa Activity Inhibition >50% at 1 μM)” and the “FXa Activity Inhibition >50% at 10 μM” value is “(+) (FXa Activity Inhibition >50% at 10 μM)”.
Take `NC(=O)N/N=C(/Cc1nc2ccc(C(=O)c3ccccc3)cc2[nH]c1=O)C(=O)Nc1ccc(Br)cc1` [Compound 24]: in experiment [1], the “FXa Activity Inhibition >50% at 1 μM” value is listed as “(−) (FXa Activity Inhibition >50% at 1 μM)” and the “FXa Activity Inhibition >50% at 10 μM” value was “(+) (FXa Activity Inhibition >50% at 10 μM)”.
Consider `O=C(NC[C@H]1CN(c2ccc(N3CCOCC3=O)cc2)C(=O)O1)c1ccc(Cl)s1` [Rivaroxaban, reference compound], for which the Emax at 0.01 µM in experiment [1] is 81%. The inhibition at 1 µM in experiment [1] (setting [5]) is above 50%. Also, in experiment [1] (setting [6]), the inhibition at 10 µM is above 50%. The aPTT result in experiment [2] was “simultaneously prolonged aPTT and PT in a dose-dependent manner”. Further, the PT entry in experiment [4] is “simultaneously prolonged aPTT and PT in a dose-dependent manner”.
